According to publication PMC9953468, “In Silico, In Vitro, and Ex Vivo Biological Activity of Some Novel Mebeverine Precursors” (Biomedicines, 2023):

Key:
Experiment in all cases: Antimicrobial activity, agar well diffusion method
Format in all cases: cell-based
Conditions in all cases: Dose 0.6 mg/disk, dwell = 6 mm
[1] = test system: Pseudomonas aeruginosa ATCC 9027
Source text: (§1) Eighteen tested microorganisms including five Gram-positive bacteria (Bacillus subtilis ATCC 6633, Bacillus amyloliquefaciens 4BCL-YT, Staphylococcus aureus ATCC 25923, Listeria monocytogenes NBIMCC 8632, Enterococcus faecalis ATCC 19433), five Gram-negative bacteria (Salmonella enteritidis ATCC 13076, Klebsiella sp.—clinical isolate, Escherichia coli ATCC 25922, Proteus vulgaris ATCC 6380, Pseudomonas aeruginosa ATCC 9027), two yeasts (Candida albicans NBIMCC 74, Saccharomyces cerevisiae ATCC 9763) and six fungi (Aspergillus niger ATCC 1015, Aspergillus flavus, Penicillium sp., Rhizopus sp., Mucor sp.—plant isolates, Fusarium moniliforme ATCC 38932) from the collection of the Department of Microbiology at the University of Food Technologies—Plovdiv, Bulgaria, were selected for the antimicrobial activity test.
(§2) The antimicrobial activity of the samples was determined by the agar well diffusion method. The tested bacteria B. subtilis and B. amyloliquefaciens were cultured on LBG agar at 30 °C. The test bacteria S. aureus, L. monocytogenes, E. faecalis, S. enteritidis, Klebsiella sp., E. coli, P. vulgaris and P. aeruginosa were cultured on LBG agar at 37 °C for 24 h. The yeast C. albicans was cultured on MEA at 37 °C, while S. cerevisiae was cultured on MEA at 30 °C for 24 h. The fungi A. niger, A. flavus, Penicillium sp., Rhizopus sp., Mucor sp., and F. moniliforme were grown on MEA at 30 °C for 7 days or until sporulation.
(§3) The inocula of the tested bacteria/yeasts were prepared by homogenization of a small amount of biomass in 5 mL of sterile 0.5% NaCl. The inocula of tested fungi were prepared by the addition of 5 mL of sterile 0.5% NaCl into the tubes. After stirring by vortex V-1 plus (Biosan), they were filtered and replaced in other tubes before use. The number of viable cells and fungal spores was determined using a bacterial counting chamber Thoma (Poly-Optik, GmbH, Bad Blankenburg, Germany). Their final concentrations were adjusted to 10^8 cfu/mL for bacterial/yeast cells and 10^5 cfu/mL for fungal spores and then inoculated in preliminarily melted and tempered at 45–48 °C LBG/MEA agar media. Next, the inoculated media were transferred in a quantity of 18 mL in sterile Petri plates (d = 90 mm) (Gosselin™, Hazebrouck, France) and allowed to harden. Then, six wells (d = 6 mm) per plate were cut, and triplicates of 60 μL of each extract were pipetted into the agar wells. The Petri plates were incubated in identical conditions.
(§4) The antimicrobial activity was determined by measuring the diameter of the inhibition zones around the wells on the 24th and 48th h of incubation. […]

Saccharomyces cerevisiae = test system: Saccharomyces cerevisiae
Source text: as §1, §2, §3, §4

Klebsiella sp. = test system: Klebsiella sp.
Source text: as §1, §2, §3, §4

[2] = test system: Escherichia coli ATCC 25922
Source text: as §1, §2, §3, §4

SMILES | Inhibition Zones [1] [mm] | Inhibition Zones (Saccharomyces cerevisiae) [mm] | Inhibition Zones (Klebsiella sp.) [mm] | Inhibition Zones [2] [mm]
CC(C)C(N)Cc1ccccc1 (stereo not shown) [Compound 3, 3-Methyl-1-phenylbutan-2-amine] | 9 | 8 | 8 | 
CC(=O)NC(Cc1ccccc1)C(C)C (stereo not shown) [Compound 4a, N-(3-methyl-1-phenylbutan-2-yl)acetamide] |  |  |  | 8
